Data taken from patent US20240225066A1, “MOGROSIDE COMPOUNDS AND THEIR COMESTIBLE USE” (Firmenich Incorporated, priority 2021, published 2024).

Target: T1, recombinant human sweet receptor (Homo sapiens, UniProt Q7RTX0+Q8TE23)
T1 construct: expressed in transfected cells
T1 sequence (Q8TE23 20-839): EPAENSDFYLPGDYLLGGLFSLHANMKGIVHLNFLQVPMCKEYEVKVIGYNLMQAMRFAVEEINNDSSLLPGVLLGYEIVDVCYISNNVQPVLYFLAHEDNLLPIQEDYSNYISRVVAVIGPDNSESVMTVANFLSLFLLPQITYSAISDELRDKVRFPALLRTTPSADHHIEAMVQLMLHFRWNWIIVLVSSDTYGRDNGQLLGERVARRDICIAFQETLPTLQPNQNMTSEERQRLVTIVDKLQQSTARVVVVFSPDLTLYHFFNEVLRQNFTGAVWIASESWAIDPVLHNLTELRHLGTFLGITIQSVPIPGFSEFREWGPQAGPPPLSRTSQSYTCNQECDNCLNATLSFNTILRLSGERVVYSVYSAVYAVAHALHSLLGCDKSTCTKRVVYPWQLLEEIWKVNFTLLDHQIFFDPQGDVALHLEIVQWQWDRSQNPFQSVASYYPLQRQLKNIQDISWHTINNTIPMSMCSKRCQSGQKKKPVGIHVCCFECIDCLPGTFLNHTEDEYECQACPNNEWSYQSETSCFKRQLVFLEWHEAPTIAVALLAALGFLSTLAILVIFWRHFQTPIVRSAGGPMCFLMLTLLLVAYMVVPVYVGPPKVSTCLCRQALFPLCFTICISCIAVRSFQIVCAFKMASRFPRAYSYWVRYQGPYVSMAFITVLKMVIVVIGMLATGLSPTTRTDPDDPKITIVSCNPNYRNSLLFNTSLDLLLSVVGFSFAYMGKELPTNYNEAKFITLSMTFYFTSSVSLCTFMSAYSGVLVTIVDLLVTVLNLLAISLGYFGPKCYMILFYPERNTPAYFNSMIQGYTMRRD
T1 sequence (Q7RTX0 21-852): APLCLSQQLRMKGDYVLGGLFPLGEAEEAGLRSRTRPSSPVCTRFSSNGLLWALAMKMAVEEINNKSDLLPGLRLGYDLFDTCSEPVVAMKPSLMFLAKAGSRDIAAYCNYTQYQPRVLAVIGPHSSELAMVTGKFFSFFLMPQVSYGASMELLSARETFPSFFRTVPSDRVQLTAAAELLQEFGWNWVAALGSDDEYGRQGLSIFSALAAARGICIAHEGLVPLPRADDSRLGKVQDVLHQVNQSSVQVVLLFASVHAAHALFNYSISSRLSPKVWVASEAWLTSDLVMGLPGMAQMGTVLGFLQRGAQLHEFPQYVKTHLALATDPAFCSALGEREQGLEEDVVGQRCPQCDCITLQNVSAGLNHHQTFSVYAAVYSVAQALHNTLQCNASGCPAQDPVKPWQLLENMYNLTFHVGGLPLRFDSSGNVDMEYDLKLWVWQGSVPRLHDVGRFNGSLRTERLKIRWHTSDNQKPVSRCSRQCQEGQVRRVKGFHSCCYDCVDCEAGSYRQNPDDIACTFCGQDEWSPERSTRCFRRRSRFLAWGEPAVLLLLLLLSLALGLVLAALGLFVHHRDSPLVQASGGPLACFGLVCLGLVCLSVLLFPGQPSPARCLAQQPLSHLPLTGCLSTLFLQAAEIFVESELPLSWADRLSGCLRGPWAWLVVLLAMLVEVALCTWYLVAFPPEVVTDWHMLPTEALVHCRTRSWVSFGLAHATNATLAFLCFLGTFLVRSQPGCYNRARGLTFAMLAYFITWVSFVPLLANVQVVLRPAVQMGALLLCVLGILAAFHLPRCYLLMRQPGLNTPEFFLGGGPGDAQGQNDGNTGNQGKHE
Assay: Sweet receptor assay, calcium imaging (Fluo-4 AM) in cells stably expressing the receptor and chimeric G-protein G16g25
Format: cell-based
Protocol: Cells stably expressing the recombinant human sweet receptor and the chimeric G-protein G16g25 were dispensed in a 384-well clear bottom plate (Fisher) and incubated overnight at 37° C. and 6% CO2. On the day of the experiment, cells were loaded with 4 μM of the calcium indicator Fluo-4 AM (Invitrogen) in D-PBS for 1 hour at room temperature and excess dye washed away with D-PBS, leaving a residual volume of 25 μL/well. After 30 minutes of rest time the cell plate and the compound plate were transferred into a fluorometric imaging plate reader (Molecular Devices). To determine potency, compound plates were prepared with serial dilutions of compound at 2× the final assay concentration in D-PBS. Imaging and data analysis was performed according to the procedures set forth in Servant et al., PROC. NAT'L ACAD. SCI. USA, vol. 107(10), pp. 4746-51 (2010).

C[C@H](CC[C@@H](O[C@@H]1O[C@H](CO[C@H]2O[C@H](CO)[C@@H](O)[C@H](O)[C@H]2O)[C@@H](O)[C@H](O)[C@H]1O[C@@H]1O[C@H](CO)[C@@H](O)[C@H](O)[C@H]1O)C(C)(C)O)[C@H]1CC[C@@]2(C)C3CC=C4[C@@H](CC[C@H](O[C@@H]5O[C@H](CO)[C@@H](O[C@@H]6O[C@H](CO)[C@@H](O)[C@H](O)[C@H]6O)[C@H](O)[C@H]5O)C4(C)C)[C@]3(C)[C@H](O)C[C@]12C (some centres unmarked) [MC1]
EC50 (Fluo-4 AM calcium signal, fluorometric imaging plate reader, read-out: EC50 of the dose-response curve in the sweet taste assays): 8 µM | dose-response effect in the sweet taste assays (serial dilutions of compound): showed a dose-response effect indicative of its utility as a sweetener
